For test [1], the target named is CHEK1 (CHK1) (Homo sapiens, UniProt O14757). Put plainly: Kinome selectivity screen CHEK1. It is filed as biochemical. As to conditions: 1 μM compound. How it is done: (§1) Kinome Selectivity Screen:
(§2) Kinase selectivity was assessed using the Life Technologies SelectScreen Kinase Profiling Service in a custom panel of 76 kinases selected to provide broad representative coverage of all kinase families. Kinase activity assays employed either the Z′-LYTE or Adapta assay technologies with ATP concentrations at or near the KM, ATP for each kinase and a test compound concentration of 1 μM.

The target of test [2] is JAK3 (Homo sapiens, UniProt P52333). Put plainly: Kinome selectivity screen JAK3. The test is classed as biochemical. As to conditions: 1 μM compound. The method, then: as §1, §2
The target in test [3] is ROCK1 (Homo sapiens, UniProt Q13464). Put plainly: Kinome selectivity screen ROCK1. It is filed as biochemical. As to conditions: 1 μM compound. The method, then: as §1, §2
The target in test [4] is MAPK1 (ERK2) (Homo sapiens, UniProt P28482). Briefly: Kinome selectivity screen MAPK1. The test is classed as biochemical. As to conditions: 1 μM compound. How it is done:
as §1, §2

Test [5] concerns the target PIM1 (Homo sapiens, UniProt P11309). Briefly: Kinome selectivity screen PIM1. It is filed as biochemical. The settings on record: 1 μM compound. The method, then:
as §1, §2

Test [6] deals with CDK9/cyclin T1 (Homo sapiens, UniProt P50750). Put plainly: Kinome selectivity screen CDK9/cyclin T1. As to conditions: 1 μM compound. It is filed as biochemical. The method, then: as §1, §2
Test [7] has as its target PRKCB1 (PKC beta I) (Homo sapiens, UniProt P05771). Briefly: Kinome selectivity screen PRKCB1. It is filed as biochemical. As to conditions: 1 μM compound. The method, then:
as §1, §2

Test [8] addresses PHKG2 (Homo sapiens, UniProt P15735). Put plainly: Kinome selectivity screen PHKG2. The test is classed as biochemical. The settings on record: 1 μM compound. The method, then: as §1, §2
Test [9] addresses LCK (Homo sapiens, UniProt P06239). Put plainly: Kinome selectivity screen LCK. As to conditions: 1 μM compound. It is filed as biochemical. How it is done:
as §1, §2

Test [10] has as its target PRKCD (PKC delta) (Homo sapiens, UniProt Q05655). Put plainly: Kinome selectivity screen PRKCD. It is filed as biochemical. As to conditions: 1 μM compound. How it is done: as §1, §2
Test [11] addresses MAPK8 (JNK1) (Homo sapiens, UniProt P45983). Put plainly: Kinome selectivity screen MAPK8. It is filed as biochemical. As to conditions: 1 μM compound. How it is done:
as §1, §2

In test [12] the test system is primary mouse B-cells. Put plainly: Primary B-cell activation (CD86+ FACS) in response to LPS. It is filed as cell-based. The settings on record: Mus musculus, B-cell, 10 μM, 2 hours pre-incubation. From the text: Compounds Block Activation of Primary Mouse B-Cells:
JNK is known to mediate activation of B-cells in response to lypopolysacharide (LPS) through the TLR4 signaling pathway as well as in response to B-cell receptor activation (stimulated e.g. with an anti-IgM antibody). Primary B-cells were isolated from the spleen of mice and assessed for their B-cell activation, via FACS analysis of CD86+ expression, in response to LPS in the presence or absence of the covalent MKK7 enzyme inhibitors presented herein, as well as a positive control JNK inhibitor, JNK-IN-8.
At 10 μM and 2 hours pre-incubation before stimulation, GO80 was able to inhibit 60% of the CD86+ response.

In test [13] the test system is JNK activation. Briefly: KTR reporter live cell imaging of JNK activation. The test is classed as cell-based. The settings on record: Homo sapiens; HEK293 cells; read-out: EC50 of test and control compounds. From the text:
As an orthogonal assay for the ICW we used a KTR reporter cell line for JNK activation via live cell imaging.

The target of test [14] is AURKA (Aurora A) (Homo sapiens, UniProt O14965). Put plainly: Kinome selectivity screen AURKA. It is filed as biochemical. As to conditions: 1 μM compound.

Chain of MAPK1 (ERK2) (P28482 whole entry): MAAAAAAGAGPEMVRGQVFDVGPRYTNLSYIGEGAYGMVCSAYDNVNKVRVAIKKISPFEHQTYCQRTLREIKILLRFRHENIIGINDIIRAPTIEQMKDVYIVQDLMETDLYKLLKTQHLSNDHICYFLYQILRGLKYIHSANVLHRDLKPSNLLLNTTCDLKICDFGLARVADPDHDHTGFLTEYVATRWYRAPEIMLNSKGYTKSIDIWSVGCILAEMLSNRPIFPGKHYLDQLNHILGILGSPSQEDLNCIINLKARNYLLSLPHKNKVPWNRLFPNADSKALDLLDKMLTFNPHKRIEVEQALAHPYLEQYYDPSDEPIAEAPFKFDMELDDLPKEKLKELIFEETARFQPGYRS
Chain of MAPK8 (JNK1) (P45983 whole entry): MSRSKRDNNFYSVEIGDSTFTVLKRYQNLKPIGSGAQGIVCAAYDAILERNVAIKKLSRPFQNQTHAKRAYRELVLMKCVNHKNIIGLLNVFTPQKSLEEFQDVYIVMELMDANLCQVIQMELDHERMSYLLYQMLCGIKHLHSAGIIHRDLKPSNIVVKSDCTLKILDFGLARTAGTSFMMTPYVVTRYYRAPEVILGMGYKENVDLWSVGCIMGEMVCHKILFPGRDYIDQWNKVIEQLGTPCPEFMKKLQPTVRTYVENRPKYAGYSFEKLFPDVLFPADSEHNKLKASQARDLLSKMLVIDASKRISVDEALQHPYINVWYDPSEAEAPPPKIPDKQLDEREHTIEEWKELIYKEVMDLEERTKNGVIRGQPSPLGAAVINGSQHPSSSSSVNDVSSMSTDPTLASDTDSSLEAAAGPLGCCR
Chain of CHEK1 (CHK1) (O14757 whole entry): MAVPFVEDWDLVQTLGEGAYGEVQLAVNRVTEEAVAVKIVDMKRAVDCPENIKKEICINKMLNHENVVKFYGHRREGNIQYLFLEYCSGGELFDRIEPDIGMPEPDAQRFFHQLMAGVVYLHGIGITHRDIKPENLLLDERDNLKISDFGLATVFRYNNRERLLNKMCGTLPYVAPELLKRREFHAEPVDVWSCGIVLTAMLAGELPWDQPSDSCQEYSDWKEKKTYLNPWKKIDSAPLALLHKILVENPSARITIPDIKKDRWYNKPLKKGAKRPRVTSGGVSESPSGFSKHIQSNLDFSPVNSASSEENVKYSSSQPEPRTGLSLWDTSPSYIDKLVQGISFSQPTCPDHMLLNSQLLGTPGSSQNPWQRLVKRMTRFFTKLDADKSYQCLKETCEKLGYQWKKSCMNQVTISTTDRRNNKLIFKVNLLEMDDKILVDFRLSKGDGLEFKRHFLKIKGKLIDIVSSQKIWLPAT
Chain of LCK (P06239 whole entry): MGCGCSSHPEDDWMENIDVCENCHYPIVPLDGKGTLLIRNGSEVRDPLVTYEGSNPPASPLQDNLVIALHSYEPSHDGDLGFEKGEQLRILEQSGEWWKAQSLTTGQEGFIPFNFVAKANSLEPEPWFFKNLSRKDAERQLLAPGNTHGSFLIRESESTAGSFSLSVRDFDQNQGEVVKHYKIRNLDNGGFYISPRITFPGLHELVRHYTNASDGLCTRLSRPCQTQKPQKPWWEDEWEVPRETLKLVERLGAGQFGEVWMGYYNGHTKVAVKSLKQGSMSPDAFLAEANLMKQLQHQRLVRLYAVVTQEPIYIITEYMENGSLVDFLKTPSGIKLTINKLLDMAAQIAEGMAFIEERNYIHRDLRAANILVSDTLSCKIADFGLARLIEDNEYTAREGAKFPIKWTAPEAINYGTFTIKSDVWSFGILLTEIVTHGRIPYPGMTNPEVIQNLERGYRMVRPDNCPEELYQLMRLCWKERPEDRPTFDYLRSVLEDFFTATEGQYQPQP
Chain of ROCK1 (Q13464 whole entry): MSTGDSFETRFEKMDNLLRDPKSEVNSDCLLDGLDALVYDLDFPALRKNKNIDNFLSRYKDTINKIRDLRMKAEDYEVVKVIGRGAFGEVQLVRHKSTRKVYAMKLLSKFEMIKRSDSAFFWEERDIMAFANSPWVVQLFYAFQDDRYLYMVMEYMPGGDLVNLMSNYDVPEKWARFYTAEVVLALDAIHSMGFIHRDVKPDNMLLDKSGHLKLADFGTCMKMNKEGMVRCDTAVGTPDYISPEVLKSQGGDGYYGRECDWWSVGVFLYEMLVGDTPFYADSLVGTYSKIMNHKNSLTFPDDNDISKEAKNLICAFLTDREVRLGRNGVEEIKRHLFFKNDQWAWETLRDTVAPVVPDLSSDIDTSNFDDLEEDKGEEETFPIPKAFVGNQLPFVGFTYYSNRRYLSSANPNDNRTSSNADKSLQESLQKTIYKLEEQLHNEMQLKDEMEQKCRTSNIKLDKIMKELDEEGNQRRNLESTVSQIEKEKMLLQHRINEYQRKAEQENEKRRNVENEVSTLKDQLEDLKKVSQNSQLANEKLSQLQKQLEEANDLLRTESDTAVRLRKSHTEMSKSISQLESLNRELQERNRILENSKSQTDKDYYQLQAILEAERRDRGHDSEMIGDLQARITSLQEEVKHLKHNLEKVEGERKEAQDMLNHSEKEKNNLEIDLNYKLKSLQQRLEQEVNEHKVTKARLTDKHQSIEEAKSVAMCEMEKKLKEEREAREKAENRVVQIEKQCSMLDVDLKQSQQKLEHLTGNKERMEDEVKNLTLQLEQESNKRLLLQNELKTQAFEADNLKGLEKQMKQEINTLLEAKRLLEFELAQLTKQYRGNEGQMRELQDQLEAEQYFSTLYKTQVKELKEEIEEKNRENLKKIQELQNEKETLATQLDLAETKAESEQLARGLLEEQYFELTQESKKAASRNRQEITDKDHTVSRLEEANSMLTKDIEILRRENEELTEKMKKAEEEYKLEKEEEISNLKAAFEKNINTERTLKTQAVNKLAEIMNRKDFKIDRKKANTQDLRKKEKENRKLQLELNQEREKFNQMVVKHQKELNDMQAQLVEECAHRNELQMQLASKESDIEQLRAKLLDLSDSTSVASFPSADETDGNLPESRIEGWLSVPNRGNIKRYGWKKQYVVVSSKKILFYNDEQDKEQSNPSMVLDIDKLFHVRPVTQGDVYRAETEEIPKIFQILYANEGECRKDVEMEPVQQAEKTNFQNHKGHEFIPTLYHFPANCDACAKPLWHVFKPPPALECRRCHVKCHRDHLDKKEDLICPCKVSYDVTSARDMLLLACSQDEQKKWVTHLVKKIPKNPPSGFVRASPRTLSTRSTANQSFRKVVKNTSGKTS
Chain of PRKCD (PKC delta) (Q05655 whole entry): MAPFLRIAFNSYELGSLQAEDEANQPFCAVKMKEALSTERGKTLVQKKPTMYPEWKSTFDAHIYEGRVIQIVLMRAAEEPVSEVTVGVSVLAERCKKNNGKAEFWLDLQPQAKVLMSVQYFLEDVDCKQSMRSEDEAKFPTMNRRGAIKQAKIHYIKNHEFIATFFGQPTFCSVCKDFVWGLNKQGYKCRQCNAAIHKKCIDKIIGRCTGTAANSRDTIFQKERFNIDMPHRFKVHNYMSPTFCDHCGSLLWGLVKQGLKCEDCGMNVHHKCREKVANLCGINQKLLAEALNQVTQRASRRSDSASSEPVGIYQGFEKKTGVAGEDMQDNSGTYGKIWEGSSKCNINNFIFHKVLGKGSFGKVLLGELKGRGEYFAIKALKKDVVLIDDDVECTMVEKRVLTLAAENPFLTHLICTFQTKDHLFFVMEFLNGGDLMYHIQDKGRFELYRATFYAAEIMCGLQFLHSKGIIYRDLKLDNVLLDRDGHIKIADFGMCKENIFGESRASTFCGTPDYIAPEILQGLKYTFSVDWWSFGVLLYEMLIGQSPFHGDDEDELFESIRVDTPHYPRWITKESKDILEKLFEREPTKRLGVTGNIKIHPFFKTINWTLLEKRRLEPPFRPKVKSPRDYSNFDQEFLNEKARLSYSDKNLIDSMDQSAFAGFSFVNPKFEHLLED
Chain of CDK9/cyclin T1 (P50750 whole entry): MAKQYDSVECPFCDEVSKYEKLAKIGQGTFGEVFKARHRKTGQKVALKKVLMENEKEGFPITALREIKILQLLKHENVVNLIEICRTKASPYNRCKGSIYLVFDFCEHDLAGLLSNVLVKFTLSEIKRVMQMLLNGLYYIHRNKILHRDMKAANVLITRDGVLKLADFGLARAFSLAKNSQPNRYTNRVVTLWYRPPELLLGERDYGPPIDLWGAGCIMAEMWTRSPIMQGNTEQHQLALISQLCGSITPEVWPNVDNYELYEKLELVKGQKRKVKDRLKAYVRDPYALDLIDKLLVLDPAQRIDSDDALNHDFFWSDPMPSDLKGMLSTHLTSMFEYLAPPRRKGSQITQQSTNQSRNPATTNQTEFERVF
Chain of CDK9/cyclin T1 (O60563 whole entry partner): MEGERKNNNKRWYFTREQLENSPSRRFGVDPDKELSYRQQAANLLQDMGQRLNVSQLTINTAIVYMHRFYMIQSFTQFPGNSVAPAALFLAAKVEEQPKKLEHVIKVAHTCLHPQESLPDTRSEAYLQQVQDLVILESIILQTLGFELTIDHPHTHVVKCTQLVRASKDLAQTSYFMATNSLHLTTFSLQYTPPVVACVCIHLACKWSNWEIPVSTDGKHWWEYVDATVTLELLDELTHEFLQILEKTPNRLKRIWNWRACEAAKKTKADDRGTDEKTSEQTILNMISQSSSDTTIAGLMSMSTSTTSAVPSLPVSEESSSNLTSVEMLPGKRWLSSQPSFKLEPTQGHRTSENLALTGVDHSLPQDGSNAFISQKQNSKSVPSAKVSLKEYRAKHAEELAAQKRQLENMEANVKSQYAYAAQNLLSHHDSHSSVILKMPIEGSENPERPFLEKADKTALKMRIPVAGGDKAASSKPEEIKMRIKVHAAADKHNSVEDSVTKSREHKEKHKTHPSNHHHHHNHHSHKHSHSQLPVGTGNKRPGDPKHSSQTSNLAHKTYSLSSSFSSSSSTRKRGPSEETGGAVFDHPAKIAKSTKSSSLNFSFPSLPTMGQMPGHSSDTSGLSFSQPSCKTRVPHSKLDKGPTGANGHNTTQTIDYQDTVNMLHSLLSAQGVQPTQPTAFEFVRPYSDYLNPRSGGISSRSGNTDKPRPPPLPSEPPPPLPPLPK

One may read the inhibition as the change of the read-out against control, counted positive when it falls. Turning to `C=CC(=O)Nc1cccc(-c2n[nH]c3ccccc23)c1` [GO32], the inhibition at 1 µM in [1] is 10%; in test [2], 89%; in test [3], -3%; in test [4], -3%; in test [5], 1%; in test [6] it was 3%. Also, the inhibition at 1 µM in test [7] is 1%; in test [8] it was 1%; in test [9] it was 5%; in [10], 9%; in test [11], 15%.
For orientation: EC50 means the concentration at which the effect is half-maximal. As for `C=CC(=O)Nc1cccc(-c2n[nH]c3cc(C)ccc23)c1` [GO80], the inhibition at 1 µM in test [1] came out at 2%; in test [2], 64%; in test [3], 3%; in test [4] it was 3%; in test [5], 5%; in [6], 5%. Also, the inhibition at 1 µM was 5% in [7]; 7% in [8]; 5% in test [9]; 7% in [10]; 16% in test [11]; 4% in test [14]. In addition, the inhibition at 10 µM in [12] is 60%. In addition, the half-maximal effective concentration (EC50) in [13] was 3.3 µM.

The values above are taken from patent publication US20210238173A1, “MITOGEN-ACTIVATED PROTEIN KINASE KINASE 7 INHIBITORS” (Yeda Research and Development Co. Ltd., priority 2018, published 2021).
